Here are results for three molecules from patent US7572910B2, “Pyridazinone aldose reductase inhibitors” (Pfizer, Inc., priority 2004, dated 2009).

The structures appear in SMILES notation.

`O=c1ccc(S(=O)(=O)c2oc3ccccc3c2O)n[nH]1` [Example 16, 6-(3-Hydroxy-benzofuran-2-sulfonyl)-2H-pyridazin-3-one]: the melting point was in the range of 186 to 189 °C.

With `O=c1ccc(S(=O)(=O)c2[nH]c3ccccc3c2Cl)n[nH]1` [Example 36, 6-(3-Chloro-indole-2-sulfonyl)-2H-pyridazin-3-one], the melting point was found to be 250 °C.

`Cn1c(S(=O)(=O)c2ccc(=O)[nH]n2)cc2ccccc21` [Example 40, 6-(N-Methylindole-2-sulfonyl)-2H-pyridazin-3-one]: the melting point lay within 233 to 235 °C.

One may read the melting point as the temperature, or range, at which the solid turns liquid.
